Data taken from the supplement of paper PMC11665569.

Experiments:
Conditions in all cases: treatment time: 5 days
MIAPACA2 [1] = assay: relative viability (fraction of vehicle control); higher = more viable / less inhibited
Experimental: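 CCK-8 viability of MIAPACA2 cells with empty vector or constitutively active YAP S127A, treated with KRAS G12C inhibitors for 5 days, normalised to vehicle control.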

SW1573 = system: SW1573
Experimental: (§1)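 CCK-8 viability of KRAS G12C-mutant cancer cell lines transfected with control, YAP/TAZ or TEAD1-4 siRNAs and treated with KRAS G12C inhibitors for 5 days; IC50 fitted in Prism after normalising absorbance at 450 nm to vehicle control.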

MIAPACA2 [2] = system: MIAPACA2
Experimental: as §1

KYSE410 = system: KYSE410
Experimental: as §1

H358 = system: H358
Experimental: as §1

H1373 = system: H1373
Experimental: as §1

H2030 [3] = system: H2030
Experimental: as §1

H2030 [4] = assay: relative viability (fraction of vehicle control); higher = more viable / less inhibited
Experimental: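 CCK-8 viability of H2030 cells transfected with control, YAP/TAZ or TEAD1-4 siRNAs and treated with KRAS G12C inhibitors for 5 days. Values are normalised to vehicle control.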

C=CC(=O)N1CCN(c2nc(=O)n(-c3c(C)ccnc3C(C)C)c3nc(-c4c(O)cccc4F)c(F)cc23)[C@@H](C)C1 [AMG510]
Conditions	IC50 (cell viability, 5 days) [nM]	relative viability
H358, siRNA knockdown (Con = control): Con	7.18	–
H358, siRNA knockdown (Con = control): TEAD1234_si1	4.08	–
H358, siRNA knockdown (Con = control): TEAD1234_si2	4.17	–
H358, siRNA knockdown (Con = control): YAP_WWTR1_si1	4.08	–
H358, siRNA knockdown (Con = control): YAP_WWTR1_si2	2.96	–
H1373, siRNA knockdown (Con = control): Con	30.7	–
H1373, siRNA knockdown (Con = control): YAP_WWTR1_si1	10.2	–
H1373, siRNA knockdown (Con = control): YAP_WWTR1_si2	4.31	–
H2030 [3], siRNA knockdown (Con = control): TEAD1234_si2	10.9	–
H2030 [3], siRNA knockdown (Con = control): YAP_WWTR1_si1	8.18	–
H2030 [4], log10 concentration (uM): 0, siRNA knockdown: TEAD1-4 siRNA 1	–	0.446
H2030 [4], log10 concentration (uM): 0, siRNA knockdown: TEAD1-4 siRNA 2	–	0.411
H2030 [4], log10 concentration (uM): 0, siRNA knockdown: YAP/TAZ siRNA 1	–	0.25
H2030 [4], log10 concentration (uM): 0, siRNA knockdown: YAP/TAZ siRNA 2	–	0.224
H2030 [4], log10 concentration (uM): 0, siRNA knockdown: negative control siRNA	–	0.714
H2030 [4], log10 concentration (uM): 1, siRNA knockdown: TEAD1-4 siRNA 1	–	0.345
H2030 [4], log10 concentration (uM): 1, siRNA knockdown: TEAD1-4 siRNA 2	–	0.325
H2030 [4], log10 concentration (uM): 1, siRNA knockdown: YAP/TAZ siRNA 1	–	0.257
H2030 [4], log10 concentration (uM): 1, siRNA knockdown: YAP/TAZ siRNA 2	–	0.283
H2030 [4], log10 concentration (uM): 1, siRNA knockdown: negative control siRNA	–	0.56
H2030 [4], log10 concentration (uM): 1.301029996, siRNA knockdown: TEAD1-4 siRNA 1	–	0.193
H2030 [4], log10 concentration (uM): 1.301029996, siRNA knockdown: TEAD1-4 siRNA 2	–	0.209
H2030 [4], log10 concentration (uM): 1.301029996, siRNA knockdown: YAP/TAZ siRNA 1	–	0.148
H2030 [4], log10 concentration (uM): 1.301029996, siRNA knockdown: YAP/TAZ siRNA 2	–	0.179
H2030 [4], log10 concentration (uM): 1.301029996, siRNA knockdown: negative control siRNA	–	0.403
H2030 [4], log10 concentration (uM): -1, siRNA knockdown: TEAD1-4 siRNA 1	–	0.504
H2030 [4], log10 concentration (uM): -1, siRNA knockdown: TEAD1-4 siRNA 2	–	0.556
H2030 [4], log10 concentration (uM): -1, siRNA knockdown: YAP/TAZ siRNA 1	–	0.181
H2030 [4], log10 concentration (uM): -1, siRNA knockdown: YAP/TAZ siRNA 2	–	0.181
H2030 [4], log10 concentration (uM): -1, siRNA knockdown: negative control siRNA	–	0.737
H2030 [4], log10 concentration (uM): -1.30103, siRNA knockdown: TEAD1-4 siRNA 1	–	0.514
H2030 [4], log10 concentration (uM): -1.30103, siRNA knockdown: TEAD1-4 siRNA 2	–	0.445
H2030 [4], log10 concentration (uM): -1.30103, siRNA knockdown: YAP/TAZ siRNA 1	–	0.207
H2030 [4], log10 concentration (uM): -1.30103, siRNA knockdown: YAP/TAZ siRNA 2	–	0.212
H2030 [4], log10 concentration (uM): -1.30103, siRNA knockdown: negative control siRNA	–	0.773
H2030 [4], log10 concentration (uM): -2, siRNA knockdown: TEAD1-4 siRNA 1	–	0.773
H2030 [4], log10 concentration (uM): -2, siRNA knockdown: TEAD1-4 siRNA 2	–	0.606
H2030 [4], log10 concentration (uM): -2, siRNA knockdown: YAP/TAZ siRNA 1	–	0.348
H2030 [4], log10 concentration (uM): -2, siRNA knockdown: YAP/TAZ siRNA 2	–	0.333
H2030 [4], log10 concentration (uM): -2, siRNA knockdown: negative control siRNA	–	0.883
H2030 [4], log10 concentration (uM): -2.30103, siRNA knockdown: TEAD1-4 siRNA 1	–	0.837
H2030 [4], log10 concentration (uM): -2.30103, siRNA knockdown: TEAD1-4 siRNA 2	–	0.67
H2030 [4], log10 concentration (uM): -2.30103, siRNA knockdown: YAP/TAZ siRNA 1	–	0.471
H2030 [4], log10 concentration (uM): -2.30103, siRNA knockdown: YAP/TAZ siRNA 2	–	0.457
H2030 [4], log10 concentration (uM): -2.30103, siRNA knockdown: negative control siRNA	–	0.909
H2030 [4], log10 concentration (uM): -3, siRNA knockdown: TEAD1-4 siRNA 1	–	0.939
H2030 [4], log10 concentration (uM): -3, siRNA knockdown: TEAD1-4 siRNA 2	–	0.875
H2030 [4], log10 concentration (uM): -3, siRNA knockdown: YAP/TAZ siRNA 1	–	0.812
H2030 [4], log10 concentration (uM): -3, siRNA knockdown: YAP/TAZ siRNA 2	–	0.688
H2030 [4], log10 concentration (uM): -3, siRNA knockdown: negative control siRNA	–	0.969
H2030 [4], log10 concentration (uM): -4, siRNA knockdown: TEAD1-4 siRNA 1	–	1.05
H2030 [4], log10 concentration (uM): -4, siRNA knockdown: TEAD1-4 siRNA 2	–	0.914
H2030 [4], log10 concentration (uM): -4, siRNA knockdown: YAP/TAZ siRNA 1	–	1.09
H2030 [4], log10 concentration (uM): -4, siRNA knockdown: YAP/TAZ siRNA 2	–	1.04
H2030 [4], log10 concentration (uM): -4, siRNA knockdown: negative control siRNA	–	0.955
KYSE410, siRNA knockdown (Con = control): Con	3540	–
KYSE410, siRNA knockdown (Con = control): TEAD1234_si1	853	–
KYSE410, siRNA knockdown (Con = control): YAP_WWTR1_si1	163	–
KYSE410, siRNA knockdown (Con = control): YAP_WWTR1_si2	33.5	–
MIAPACA2 [1], log10 concentration (uM): 0, ectopic expression: YAP S127A	–	0.773
MIAPACA2 [1], log10 concentration (uM): 0, ectopic expression: empty vector (YAP experiment)	–	0.0894
MIAPACA2 [1], log10 concentration (uM): 1, ectopic expression: YAP S127A	–	0.727
MIAPACA2 [1], log10 concentration (uM): 1, ectopic expression: empty vector (YAP experiment)	–	0.106
MIAPACA2 [1], log10 concentration (uM): 1.301029996, ectopic expression: YAP S127A	–	0.285
MIAPACA2 [1], log10 concentration (uM): 1.301029996, ectopic expression: empty vector (YAP experiment)	–	0.047
MIAPACA2 [1], log10 concentration (uM): -1, ectopic expression: YAP S127A	–	0.861
MIAPACA2 [1], log10 concentration (uM): -1, ectopic expression: empty vector (YAP experiment)	–	0.128
MIAPACA2 [1], log10 concentration (uM): -1.30103, ectopic expression: YAP S127A	–	0.91
MIAPACA2 [1], log10 concentration (uM): -1.30103, ectopic expression: empty vector (YAP experiment)	–	0.237
MIAPACA2 [1], log10 concentration (uM): -2, ectopic expression: YAP S127A	–	0.988
MIAPACA2 [1], log10 concentration (uM): -2, ectopic expression: empty vector (YAP experiment)	–	0.79
MIAPACA2 [1], log10 concentration (uM): -2.30103, ectopic expression: YAP S127A	–	1.03
MIAPACA2 [1], log10 concentration (uM): -2.30103, ectopic expression: empty vector (YAP experiment)	–	0.906
MIAPACA2 [1], log10 concentration (uM): -3, ectopic expression: YAP S127A	–	1.05
MIAPACA2 [1], log10 concentration (uM): -3, ectopic expression: empty vector (YAP experiment)	–	1.03
MIAPACA2 [1], log10 concentration (uM): -4, ectopic expression: YAP S127A	–	1
MIAPACA2 [1], log10 concentration (uM): -4, ectopic expression: empty vector (YAP experiment)	–	1
MIAPACA2 [2], siRNA knockdown (Con = control): Con	163	–
MIAPACA2 [2], siRNA knockdown (Con = control): TEAD1234_si1	66.1	–
MIAPACA2 [2], siRNA knockdown (Con = control): TEAD1234_si2	57.5	–
MIAPACA2 [2], siRNA knockdown (Con = control): YAP_WWTR1_si1	46.3	–
MIAPACA2 [2], siRNA knockdown (Con = control): YAP_WWTR1_si2	69.9	–
SW1573, siRNA knockdown (Con = control): Con	12300	–
SW1573, siRNA knockdown (Con = control): TEAD1234_si1	10.9	–
SW1573, siRNA knockdown (Con = control): TEAD1234_si2	4.11	–
SW1573, siRNA knockdown (Con = control): YAP_WWTR1_si1	2.87	–
SW1573, siRNA knockdown (Con = control): YAP_WWTR1_si2	3.42	–
